# Measurements as given in ChEMBL document CHEMBL5096164, “In Vivo Profiling of a Natural Alkaloid, Anatabine, in Rodents: Pharmacokinetics and Anti-Inflammatory Efficacy” (J Nat Prod, 2021).
# What was measured:
# [1] = Half life in mouse plasma
# [2] = in vivo; conditions: rat, plasma
structure (smiles),measurement,setting,value
CN1CCC[C@H]1c1cccnc1 [NICOTINE],half-life,[1],6 min
same,half-life,[2],54 min
